Measurements as given in ChEMBL document CHEMBL1123852, “Synthesis and structure-activity studies of corticosteroid 17-heterocyclic aromatic esters. 1. 9 alpha, 11 beta-dichloro series” (1987).

Columns and labels:
[1] = species: Mus musculus; experiment: Antiinflammatory potency to betamethasone 17-valerate measured in mice using 5 hr Tonelli croton oil ear test.; type: functional
[2] = species: Mus musculus; experiment: Antiinflammatory potency to betamethasone 17-valerate measured in mice using 5 day Tonelli croton oil ear test.; type: functional

Structure (SMILES) | Topical potency [1] | Topical potency [2]
CC(=O)OCC(=O)[C@@]1(OC(=O)c2cnc3ccccc3n2)C(C)CC2C3CCC4=CC(=O)C=CC4(C)[C@@]3(Cl)C(Cl)CC21C (some centres undefined) | 0.3 | 
CCCCC(=O)O[C@]1(C(=O)CO)[C@@H](C)C[C@H]2[C@@H]3CCC4=CC(=O)C=C[C@]4(C)[C@@]3(F)[C@@H](O)C[C@@]21C [BETAMETHASONE VALERATE] | 1 | 1
CC(=O)OCC(=O)[C@@]1(OC(=O)c2ccco2)C(C)CC2C3C[C@H](F)C4=CC(=O)C=CC4(C)[C@@]3(Cl)C(Cl)CC21C (some centres undefined) | 3.3 | 1.8
CC1CC2C3CCC4=CC(=O)C=CC4(C)[C@@]3(Cl)C(Cl)CC2(C)[C@@]1(OC(=O)c1cccs1)C(=O)CO (some centres undefined) | 0.8 | 
CC1CC2C3CCC4=CC(=O)C=CC4(C)[C@@]3(Cl)C(Cl)CC2(C)[C@@]1(OC(=O)c1ccoc1)C(=O)CCl (some centres undefined) | 1 | 1.7
COCC(=O)OCC(=O)[C@@]1(OC(=O)c2ccco2)C(C)CC2C3CCC4=CC(=O)C=CC4(C)[C@@]3(Cl)C(Cl)CC21C (some centres undefined) | 1 | 3
CC1CC2C3C[C@H](F)C4=CC(=O)C=CC4(C)[C@@]3(Cl)C(Cl)CC2(C)[C@@]1(OC(=O)c1ccco1)C(=O)CCl (some centres undefined) | 2.5 | 3
CC(=O)OCC(=O)[C@@]1(OC(=O)c2ccoc2)C(C)CC2C3CCC4=CC(=O)C=CC4(C)[C@@]3(Cl)C(Cl)CC21C (some centres undefined) | 1.3 | 1.4
CC1CC2C3CCC4=CC(=O)C=CC4(C)[C@@]3(Cl)C(Cl)CC2(C)[C@@]1(OC(=O)c1cccs1)C(=O)CCl (some centres undefined) | 0.7 | 3.3
CC1CC2C3CCC4=CC(=O)C=CC4(C)[C@@]3(Cl)C(Cl)CC2(C)[C@@]1(OC(=O)c1ccco1)C(=O)CO (some centres undefined) | 0.8 | 
CC(=O)OCC(=O)[C@@]1(OC(=O)c2ccco2)[C@H](C)CC2C3CCC4=CC(=O)C=C[C@]4(C)[C@@]3(Cl)C(Cl)C[C@@]21C (some centres undefined) | 1.4 | 1.2
C[C@@H]1CC2C3CCC4=CC(=O)C=C[C@]4(C)[C@@]3(Cl)C(Cl)C[C@]2(C)[C@@]1(OC(=O)c1ccco1)C(=O)CCl (some centres undefined) | 1.9 | 8.2
CCC(=O)OCC(=O)[C@@]1(OC(=O)c2ccco2)C(C)CC2C3CCC4=CC(=O)C=CC4(C)[C@@]3(Cl)C(Cl)CC21C (some centres undefined) | 1.1 | 0.9
CC(=O)OCC(=O)[C@@]1(OC(=O)c2ccsc2)C(C)CC2C3CCC4=CC(=O)C=CC4(C)[C@@]3(Cl)C(Cl)CC21C (some centres undefined) | 0.9 | 3.2
CC(=O)OCC(=O)[C@@]1(OC(=O)c2ccco2)[C@@H](C)CC2C3CCC4=CC(=O)C=C[C@]4(C)[C@@]3(Cl)C(Cl)C[C@@]21C (some centres undefined) | 1.3 | 1.7
CC(=O)OCC(=O)[C@@]1(OC(=O)c2ccc(C)s2)C(C)CC2C3CCC4=CC(=O)C=CC4(C)[C@@]3(Cl)C(Cl)CC21C (some centres undefined) | 1.2 | 0.56
CC(=O)OCC(=O)[C@@]1(OC(=O)c2cccs2)C(C)CC2C3CCC4=CC(=O)C=CC4(C)[C@@]3(Cl)C(Cl)CC21C (some centres undefined) | 1.3 | 0.8
CC1CC2C3CCC4=CC(=O)C=CC4(C)[C@@]3(Cl)C(Cl)CC2(C)[C@@]1(OC(=O)c1ccco1)C(=O)CF (some centres undefined) | 1.8 | 4
CC(=O)OCC(=O)[C@@]1(OC(=O)c2cccn2C)C(C)CC2C3CCC4=CC(=O)C=CC4(C)[C@@]3(Cl)C(Cl)CC21C (some centres undefined) | 1.1 | 
CC1CC2C3CCC4=CC(=O)C=CC4(C)[C@@]3(Cl)C(Cl)CC2(C)[C@@]1(OC(=O)c1ccoc1)C(=O)CO (some centres undefined) | 0.7 | 
CCCC(=O)OCC(=O)[C@@]1(OC(=O)c2ccco2)C(C)CC2C3CCC4=CC(=O)C=CC4(C)[C@@]3(Cl)C(Cl)CC21C (some centres undefined) | 1 | 
CC(=O)OCC(=O)[C@@]1(OC(=O)c2ccc(Br)o2)C(C)CC2C3CCC4=CC(=O)C=CC4(C)[C@@]3(Cl)C(Cl)CC21C (some centres undefined) | 0.6 | 
C[C@H]1CC2C3CCC4=CC(=O)C=C[C@]4(C)[C@@]3(Cl)C(Cl)C[C@]2(C)[C@@]1(OC(=O)c1ccco1)C(=O)CCl (some centres undefined) | 1.2 | 0.8
